Starred links: 1 amine or outer side, 2 acyl side, 3 side chain; linkers in the order of their positions; H or OH if unused. Positions of bridges follow the written chain, without caps; N, C: chain ends. Non-standard residues stand in square brackets, D forms with d. Residues, ends and D or L forms follow the SMILES beside them. ξ: configuration not given here. *: point of attachment. ξAbu(βξ-NH2) = CC(N[*:3])C(N[*:1])C(=O)[*:2]; ξAsp(βξ-Me) = CC(C(=O)O)C(N)C(=O)O; X2 = O=C(CCc1ccc(N[*:1])cc1)[*:2]; X1 = O=C(Cc1ccc(N[*:1])cc1)[*:2]; ξAbu(3ξ-NH2) = CC(N)C(N)C(=O)O; Lauroyl = CCCCCCCCCCCC(=O)*; Pip = O=C(O)[CH]1CCCCN1
What was measured:
[1] = In vivo half-life after single i.v. administration, mice; conditions: female, Swiss CD1, mouse, plasma, iv, 10 mg/kg
Procedure: (§1) Yet other exemplary in vivo models can be used to characterize the pharmacokinetics and pharmacodynamic parameters of antimicrobial compounds of this disclosure. Some parameters that can be measured include an in vivo half-life of a compound, elimination rate and clearance, volume of distribution, and bioavailability. For example, briefly, compounds can be administered as a single i.v. or oral (p.o.) dose in mice or rats. At various time points (ranging from 1 minute to 72 hours), blood from treated animals is collected and the concentration of lipopeptide derivative in the ex vivo plasma can be quantified by, for example, liquid chromatography with mass spectrometric detection (LC/MS). After quantification, pharmacokinetics parameters can be calculated using methods known in the art, such as a one compartment model with mono-exponential decay and linear regression analysis (see, e.g., Fantin et al., Antimicrob. Agents Chemotherap. 35: 1413. 1991).
(§2) A pharmacokinetic parameter that can be measured, and which aids in determining efficacy, after a single i.v. administration of an antimicrobial lipopeptide derivative of the instant disclosure is the systemic half-life of the compound. Briefly, test compounds were dissolved in a 5% mannitol solution (pH was then adjusted) to a concentration of 1 mg/mL (w/v). A single intravenous injection in the lateral caudal vein of Swiss CD1 mice (5 to 6 weeks old, female) or Sprague Dawley rats (male) was used to administer the lipopeptide derivative at a final dose of 10 mg/kg. At various time points (ranging from about 4 minutes to about 24 hours for mice, and 48 or 72 hours for rats) mice were sacrificed and blood was harvested. The concentration of lipopeptide derivative in ex vivo plasma was quantified using liquid chromatography (LC) with mass spectrometric detection (MS).

[2] = system: S. aureus Smith (SAU0017, ATCC 19636); assay: Intraperitoneal murine model of protection against infection (ED50, Table 21); format: in vivo, Staphylococcus aureus; conditions: Swiss CD1 mice infected i.p., compound i.v.
Source text: (§3) A variety of in vivo models may be used to assess the antimicrobial properties of lipopeptide derivative compounds of this disclosure. For example, antimicrobial compounds of the instant disclosure may be tested for efficacy by measuring a compound's ability to protect a mouse against a microbial infection, such as an infection or disease caused by or related to Gram-positive bacteria, including Staphylococcus aureus, Streptococcus pneumoniae, and Enterococcus faecalis. […] A certain period after infection, mice are then individually treated, for example intravenously (i.v.), with a lipopeptide derivative of this disclosure.
(§4) Antimicrobial lipopeptide derivatives of the instant invention were tested for antimicrobial activity against Gram-positive bacteria in an intraperitoneal (i.p.) murine model (i.e., bacteria were injected i.p. and lipopeptide compounds were administered intravenously (i.v.)). Mice were infected with Staphylococcus aureus, Streptococcus pneumoniae, or Enterococcus faecalis, which were prepared as follows: S. aureus Smith (SAU0017, ATCC 19636) were grown in culture overnight on trypticase soy broth, harvested and then resuspended in fresh media containing 5% mucin (Sigma Chemical Co.); S. pneumoniae (SPN 0032, ATCC 10813) were grown overnight on blood agar plates and re-suspended in 0.9% sterile saline; and E. faecalis EFS0040 (clinical isolate) were grown overnight in culture on blood heart infusion broth, washed and resuspended in 0.9% saline and mixed with equal volume of sterile fecal rat extract. Swiss CD1 mice were each infected i.p. with bacteria at the following doses: S. aureus at 10^6 CFU/mouse; S. pneumoniae at 10^2 CFU/mouse; or E. faecalis at 10^7.5 CFU/mouse. […] The ED50 for each compound was calculated using the method of Reed and Meunch (Am. J. Hyg. 27: 493, 1938).

[3] = system: S. pneumoniae (SPN 0032, ATCC 10813); assay: as above; format: in vivo, Streptococcus pneumoniae; conditions: Swiss CD1 mice infected i.p., compound i.v.
Source text: as §3, §4

[4] = Acute toxicity, maximum tolerated dose (MTD); conditions: Swiss CD1, mouse, in vivo, iv
Procedure: Another measure of toxicity is the maximum tolerated dose (MTD), which is determined as a dose level that is not accompanied by mortality or life-threatening toxicity. The dose ratio between toxic and therapeutic effect is the therapeutic index. […] The data obtained from these cell culture assays and animal studies can be used in formulating a dosage range that is not toxic for use in human subjects. […] The dosage may vary within this range depending upon the dosage form employed and the route of administration utilized. The exact formulation, route of administration and dosage can be chosen by the individual physician in view of the patient's condition or need thereof (see, e.g., Fingl et al., 1975, In: The Pharmacological Basis of Therapeutics, Chapter 1).
For example, to examine acute toxicity, lipopeptide antibiotics of the invention can be tested in an animal model, such as Swiss CD1 mice, to determine the MTD. In certain embodiments, the animals used to test toxicity of a particular compound can be approximately 5-6 weeks old at the start of the experiment and weigh 22-26 g. The lipopeptides may be administered intravenously (i.v.) into, for example, the caudal tail vein at dose levels that range from about 50 to about 500 mg/kg, or from about 75 to about 250 mg/kg, or from about 100 to about 200 mg/kg, or at a dose range at or below 100 mg/kg. The animals are generally observed immediately after administration, 1-2 hours post administration, 5-8 hours post administration, and once daily thereafter. Observations include both the activity level of the mouse as well as any physical side effects from the administered dose. The animal weight is recorded on day 0 (immediately before dosing) and on day 7.

[5] = system: Staphylococcus aureus (MSSA); conditions: 24 h
Method in brief: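 Broth microdilution MIC per NCCLS M7-A6 with doubling serial dilutions, in cation-adjusted Mueller-Hinton broth supplemented with 0.625 mM calcium.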

[6] = system: E. faecalis EFS0040 (clinical isolate); assay: Intraperitoneal murine model of protection against infection (ED50, Table 21); format: in vivo, Enterococcus faecalis; conditions: Swiss CD1 mice infected i.p., compound i.v.
Source text: as §3, §4

Staphylococcus aureus = format: cell-based
Procedure: An exemplary pharmacokinetic parameter to aid in characterizing the properties of lipopeptide derivative compounds of the disclosure is post-antibiotic effect (PAE) of a lipopeptide derivative. For example, a bacterial culture with an initial count of 10^6 to 10^7 colony forming units per ml (CFU/ml) is treated with a certain concentration of lipopetide derivative for a certain time and a parallel (control) culture is left untreated. After treatment, the lipopetide derivative is removed from the culture (e.g., by dilution 1:1000 in fresh, lipopetide derivative-free medium), and the untreated culture is manipulated in the same way. Then the cultures are further incubated and monitored for bacterial growth over time. […] By way of background and not wishing to be bound by theory, a lipopeptide derivative having a measurable PAE activity will likely provide additional time for the host immune system to remove bacteria that might have survived antibiotic treatment and reproduced after the antibiotic is degraded, removed or filtered from the circulatory system. A longer PAE can influence the clinical outcome of antimicrobial therapy (i.e., a lower dose of a lipopetide derivative may be used to treat an infection or the frequency of a dosing regimen can be reduced).
After removal of the lipopeptide compounds, bacterial titre was determined each hour to monitor bacterial re-growth. The PAE duration is defined as the difference in time required for antimicrobial exposed bacterial cells versus unexposed bacterial cells to achieve an increase of 1 log10 unit in CFU/mL.

in vivo = conditions: male, Sprague Dawley, rat, plasma, iv, 10 mg/kg
Procedure: as §1, §2

[7] = system: Streptococcus pneumoniae (SPN0002); assay: Lung infection model in neutropenic mice; format: in vivo
Procedure: Antimicrobial lipopeptide derivatives of the instant invention were tested for antimicrobial activity against Gram-positive bacteria in an intranasal (i.n.), immunocomprimised murine lung infection model (i.e., bacteria were innoculated i.n. and lipopeptide compounds were administered i.v.). Streptococcus pneumoniae (SPN0002) were grown on 5% sheep blood agar plates for 24 h at 37° C., harvested and then resuspended in 0.9% saline. A group of three to four Swiss CD1 mice were rendered neutropenic by administration of cyclophosphamide (Sigma Chemical Co.; 150 mg/kg, i.p.) on day −4 and −1 before infection. At time −18 to −24 hours, each mouse was infected i.n. dropwise via the nares with 50 μl of the prepared bacterial inoculum (i.e., a dose of about 5×10^6 CFU/mouse). At 18 to 24 hours post-infection, the groups of mice received i.v. (1) a lipopeptide derivative formulated in a 5% D-mannitol solution at a dose of about 1 mg/kg, 3 mg/kg, 10 mg/kg, or 30 mg/kg; (2) the 5% mannitol vehicle alone at a dose volume of 10 mL/kg; or (3) a known antibiotic, such as ampicillin, at a similar dose as the lipopeptide compounds. At 18 to 24 hours post-antibiotic treatment, mice were sacrificed and lungs harvested. Lungs were sampled by spreading homogenates on blood agar plates and incubating for 24 h at 37° C., and then counting the number of CFU. The EKill (killing effect; i.e., log10 CFU/lung reduction as compared to CFU count at intial treatment time) and the EMax (maximum reduction effect; i.e., log10 CFU/lung reduction as compared to CFU count of control at 24 hours) for each compound was calculated.

Compound: CCCCCCCCCCCCCCC(=O)NC(CC(=O)O)C(=O)NC1C(=O)N2CCCCC2C(=O)NC(C(C)C(=O)O)C(=O)NC(CC(=O)O)C(=O)NCC(=O)NC(CC(=O)O)C(=O)NCC(=O)NC(C(C)NC(=O)CN)C(=O)NC(C(C)C)C(=O)N2CCCC2C(=O)NC1C (centres unmarked) [Compound 3, C15-Amphomycin-9-Gly]
- half-life [1]: 399 min
- ED50 in Mice, S. aureus (SAU0017) [2]: 4.9 mg/kg
- ED50 in Mice, S. pneumoniae (SPN0032) [3]: 1.3 mg/kg
- MTD at 7 days [4]: 50 to 200 mg/kg

Compound: CC(=O)Nc1ccc(C(=O)NC(CC(=O)O)C(=O)NC2C(=O)N3CCCCC3C(=O)NC(C(C)C(=O)O)C(=O)NC(CC(=O)O)C(=O)NCC(=O)NC(CC(=O)O)C(=O)NCC(=O)NC(C(C)N)C(=O)NC(C(C)C)C(=O)N3CCCC3C(=O)NC2C)cc1 (centres unmarked) [Compound 85, C2-PABA-Amphomycin]
- MIC [5]: 2 to 4 µg/mL
- half-life [1]: 310 min
- ED50 in Mice, S. aureus (SAU0017) [2]: 6.5 mg/kg
- ED50 in Mice, E. faecalis (EFS0040) [6]: 5.7 mg/kg
- MTD at 7 days [4]: 50 to 200 mg/kg

Compound: CCCCCCCCCCCC(=O)Nc1ccc(CCC(=O)NC(CC(=O)O)C(=O)NC2C(=O)N3CCCCC3C(=O)NC(C(C)C(=O)O)C(=O)NC(CC(=O)O)C(=O)NCC(=O)NC(CC(=O)O)C(=O)NCC(=O)NC(C(C)N)C(=O)NC(C(C)C)C(=O)N3CCCC3C(=O)NC2C)cc1 (stereo not drawn) [Compound 108, C12-(p-Aminophenylpropanoyl)-Amphomycin] (Lauroyl-[X2]D[ξAbu(βξ-NH2)][Pip][ξAsp(βξ-Me)]DGDG[ξAbu(3ξ-NH2)]VP; lactam 3-C; configuration not given here)
- MIC [5]: 0.5 µg/mL
- half-life [1]: 273 min
- ED50 in Mice, S. aureus (SAU0017) [2]: 6.5 mg/kg
- MTD at 7 days [4]: 50 to 200 mg/kg

Compound: CCCCCCCCCCCC(=O)Nc1ccc(CC(=O)NC(CC(=O)O)C(=O)NC2C(=O)N3CCCCC3C(=O)NC(C(C)C(=O)O)C(=O)NC(CC(=O)O)C(=O)NCC(=O)NC(CC(=O)O)C(=O)NCC(=O)NC(C(C)N)C(=O)NC(C(C)C)C(=O)N3CCCC3C(=O)NC2C)cc1 (stereo not drawn) [Compound 119, C12-(p-Apa)-Amphomycin] (Lauroyl-[X1]D[ξAbu(βξ-NH2)][Pip][ξAsp(βξ-Me)]DGDG[ξAbu(3ξ-NH2)]VP; lactam 3-C; configuration not given here)
- MIC [5]: 0.25 µg/mL
- half-life [1]: 253 min
- ED50 in Mice, S. aureus (SAU0017) [2]: 7.6 mg/kg
- MTD at 7 days [4]: 50 to 200 mg/kg

Compound: CCCCCCCCCCCCCCNC(=O)NC(CC(=O)O)C(=O)NC1C(=O)N2CCCCC2C(=O)NC(C(C)C(=O)O)C(=O)NC(CC(=O)O)C(=O)NCC(=O)NC(CC(=O)O)C(=O)NCC(=O)NC(C(C)NC(=O)CCN)C(=O)NC(C(C)C)C(=O)N2CCCC2C(=O)NC1C (stereo not drawn) [Compound 278, CH3—(CH2)13—NH—C(═O)-Amphomycin-9-(β-Ala)]
- MIC [5]: 0.5 µg/mL
- MIC used for the PAE experiment (Staphylococcus aureus): 2 µg/mL
- Post Antibiotic Effect (hours) 0.5 × MIC (Staphylococcus aureus; exposure one hour at 0.5 × MIC, S. aureus log phase): 1.5 h
- Post Antibiotic Effect (hours) 1 × MIC (Staphylococcus aureus; exposure one hour at 1 × MIC): 2.6 h
- Post Antibiotic Effect (hours) 2 × MIC (Staphylococcus aureus; exposure one hour at 2 × MIC): 2.2 h
- Post Antibiotic Effect (hours) 4 × MIC (Staphylococcus aureus; exposure one hour at 4 × MIC): 3.2 h
- half-life [1]: 447 min
- half-life (in vivo): 425 min
- ED50 in Mice, S. aureus (SAU0017) [2]: 7.1 mg/kg
- ED50 in Mice, E. faecalis (EFS0040) [6]: 5.3 mg/kg
- MTD at 7 days [4]: 200 to 400 mg/kg

Compound: CC1(C)S[C@@H]2[C@H](NC(=O)[C@H](N)c3ccccc3)C(=O)N2[C@H]1C(=O)O [ampicillin, reference compound]
- ED50 ([6]; Enterococcus faecalis, read-out: ED50 in Mice, E. faecalis (EFS0040)): 4.2 mg/kg
- EKill (log10 CFU/lung reduction versus count at initial treatment time) ([7]; 30 mg/kg i.v.): 1.8 log10 CFU/lung
- log10 CFU/lung reduction (EMax, versus control at 24 hours) ([7]; highest dose level 30 mg/kg i.v.): 2.58 log10 CFU/lung

Compound: amphomycin [reference compound]
- ED50 in Mice, S. aureus (SAU0017) [2]: 5.4 mg/kg
- ED50 in Mice, S. pneumoniae (SPN0032) [3]: 2.0 mg/kg

Compound: aspartocin [reference compound]
- ED50 in Mice, S. aureus (SAU0017) [2]: 5.4 mg/kg
- ED50 in Mice, S. pneumoniae (SPN0032) [3]: 0.65 mg/kg
